Experimental data published in ChEMBL document CHEMBL3351785, “Discovery of nanomolar phosphoinositide 3-kinase gamma (PI3Kγ) inhibitors using ligand-based modeling and virtual screening followed by in vitro analysis” (Eur J Med Chem, 2014).
Non-standard residues stand in square brackets, D forms with d. Residues, ends and D or L forms follow the SMILES beside them. *: point of attachment. Cbz = O=C(OCc1ccccc1)*; Nva = CCC[CH](N)C(=O)O; Bn = c1ccc(C*)cc1

Tests used:
[1] = biological target: T1, Phosphatidylinositol 4,5-bisphosphate 3-kinase catalytic subunit gamma isoform (Homo sapiens, UniProt P48736); test: Inhibition of PI3Kgamma (unknown origin) assessed as decrease in fluorescence intensity using phosphorylated substrate at 10 uM
Target sequence in this assay (P48736 whole entry, looked up, canonical isoform): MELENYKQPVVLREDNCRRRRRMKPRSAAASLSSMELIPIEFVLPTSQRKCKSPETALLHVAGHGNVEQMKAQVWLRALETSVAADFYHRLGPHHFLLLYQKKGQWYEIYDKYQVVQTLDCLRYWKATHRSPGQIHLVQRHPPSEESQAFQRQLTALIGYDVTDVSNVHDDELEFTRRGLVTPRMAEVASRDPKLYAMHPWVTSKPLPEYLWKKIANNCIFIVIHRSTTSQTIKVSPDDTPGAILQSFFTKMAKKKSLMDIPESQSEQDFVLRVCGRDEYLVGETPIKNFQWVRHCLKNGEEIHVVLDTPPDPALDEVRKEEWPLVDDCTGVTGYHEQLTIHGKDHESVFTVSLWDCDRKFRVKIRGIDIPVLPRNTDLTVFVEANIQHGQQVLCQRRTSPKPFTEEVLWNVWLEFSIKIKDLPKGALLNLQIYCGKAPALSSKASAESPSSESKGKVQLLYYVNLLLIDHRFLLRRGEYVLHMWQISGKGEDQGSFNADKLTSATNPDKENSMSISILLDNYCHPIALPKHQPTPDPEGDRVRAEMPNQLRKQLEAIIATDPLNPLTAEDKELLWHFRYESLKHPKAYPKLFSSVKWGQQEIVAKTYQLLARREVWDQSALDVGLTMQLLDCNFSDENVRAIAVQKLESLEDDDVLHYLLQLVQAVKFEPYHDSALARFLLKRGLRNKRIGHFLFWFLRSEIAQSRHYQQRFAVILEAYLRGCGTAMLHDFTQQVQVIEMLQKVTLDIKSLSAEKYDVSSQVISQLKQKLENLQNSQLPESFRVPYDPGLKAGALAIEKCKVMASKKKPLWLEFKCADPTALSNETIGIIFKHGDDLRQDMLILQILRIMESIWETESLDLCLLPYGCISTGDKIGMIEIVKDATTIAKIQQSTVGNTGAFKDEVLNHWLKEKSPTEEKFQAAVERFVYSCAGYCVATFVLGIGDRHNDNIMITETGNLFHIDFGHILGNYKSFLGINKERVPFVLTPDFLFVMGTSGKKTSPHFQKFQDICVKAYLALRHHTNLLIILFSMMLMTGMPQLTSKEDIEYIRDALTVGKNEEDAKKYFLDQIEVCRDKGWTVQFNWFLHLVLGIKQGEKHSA

[2] = biological target: T1, Phosphatidylinositol 4,5-bisphosphate 3-kinase catalytic subunit gamma isoform; test: Inhibition of PI3Kgamma (unknown origin) assessed as decrease in fluorescence intensity using phosphorylated substrate
Target sequence in this assay (P48736 whole entry, canonical isoform): as the sequence (P48736 whole entry, looked up, canonical isoform) above

Row | Compound | inhibition [1] [%] | IC50 [2] [nM]
1 | COc1cc(/N=N\c2ccc(S(=O)(=O)O)cc2)ccc1/N=N/c1c(O)ccc2cc(S(=O)(=O)O)ccc12 | 62 | –
2 | O=C1NC(=S)S/C1=C\c1ccc2c(c1)N(CCc1ccc(Cl)cc1Cl)C(=O)CO2 | – | 18.1
3 | CC(C)(C)c1ccc(CCN2C(=O)COc3ccc(/C=C4\SC(=S)NC4=O)cc32)cc1 | – | 140
4 | CCCCOc1ccc(CCC(=O)O)cc1OCCCC | 20 | –
5 | O=C(NC(CSCc1ccccc1)C(=O)NC(Cc1ccc(O)cc1)C(=O)O)OCc1ccccc1 (stereo unspecified) (Cbz-Cys(Bn)-Tyr-OH; configuration not given here) | 40 | –
6 | O=c1c2c(Cl)cccc2nc(CSc2ncnc3[nH]cnc23)n1-c1ccccc1Cl | – | 5450
7 | Cc1cc2c(cc1C(=O)CCC(=O)O)CC1(C2)Cc2cc(C)c(C(=O)CCC(=O)O)cc2C1 | 67 | –
8 | O=C1NC(=S)S/C1=C\c1ccc2c(c1)N(CCc1ccc(Br)cc1)C(=O)CO2 | – | 9.9
9 | O=c1cc(N2CCOCC2)[nH]c2c(Oc3ccccc3F)cccc12 | – | 7260
10 | O=C(O)CCC(=O)c1ccc(Oc2ccc(Cl)cc2)cc1 | 51 | –
11 | O=C1NC(=S)S/C1=C\c1ccc2c(c1)N(CCc1ccc(Cl)cc1)C(=O)CO2 | – | 20.1
12 | COc1ccc2cc(C(=O)CCCC(C)C(=O)O)ccc2c1 (stereo unspecified) | 58 | 5180
13 | CC(C)(C)c1ccc(CN2C(=O)COc3ccc(/C=C4\SC(=S)NC4=O)cc32)cc1 | – | 10.2
14 | COc1cc(O)cc(/C=C2\SC(=S)NC2=O)c1 | – | 328
15 | Cc1cccc(CN2C(=O)COc3ccc(/C=C4\SC(=S)NC4=O)cc32)c1 | – | 184
16 | COc1cc2cc(C(=O)O)[nH]c2cc1OCc1ccccc1 | 100 | 105
17 | O=S(=O)(O)c1cc(O)c2ccc(Nc3ccc4c(O)cc(S(=O)(=O)O)cc4c3)cc2c1 | 31 | –
18 | Cc1cc(C)cc(CCN2C(=O)COc3ccc(/C=C4\SC(=S)NC4=O)cc32)c1 | – | 11.2
19 | CC(C)CC(NC(=O)OCc1ccccc1)C(=O)NC(Cc1ccc(O)cc1)C(=O)O (stereo not drawn) (Cbz-Leu-Tyr-OH; configuration not given here) | 57 | –
20 | Cc1cc(C(=O)O)c(C)cc1SSc1cc(C)c(C(=O)O)cc1C | 83 | 1460
21 | CCCCCCCCCCCCCCCC1=NN(c2ccc(S(=O)(=O)O)cc2)C(=O)C1/N=N/c1ccccc1 (stereo unspecified) | 92 | –

Row | Compound | inhibition [1] [%] | IC50 [2] [nM]
22 | O=C1NC(=S)S/C1=C\c1ccc2c(c1)N(CCc1ccccc1)C(=O)CO2 | – | 103
23 | COc1ccccc1-n1c(CSc2ncnc3[nH]cnc23)nc2cccc(C)c2c1=O | – | 1820
24 | O=c1c2c(Cl)cccc2nc(CSc2ncnc3[nH]cnc23)n1-c1ccccc1F | – | 3630
25 | Cc1cccc(CCN2C(=O)COc3ccc(/C=C4\SC(=S)NC4=O)cc32)c1 | – | 20.9
26 | O=C(COc1ccc(Cl)cc1C(=O)O)Nc1cccc(NC(=O)Nc2cccc(S(=O)(=O)F)c2)c1 | 51 | 9160
27 | Cc1ccccc1/N=N\c1ccc(/N=N/c2c(O)ccc3cc(S(=O)(=O)O)ccc23)c(C)c1 | 64 | –
28 | Cc1cccc2nc(CSc3ncnc4[nH]cnc34)n(-c3ccccc3Cl)c(=O)c12 | – | 6170
29 | O=C1NC(=S)S/C1=C\c1ccc2c(c1)N(Cc1ccc(Cl)cc1)C(=O)CO2 | – | 30
30 | COc1cc2cc3c4cc(OC)c(OC)cc4cc[n+]3c(CCC(=O)O)c2cc1OC | 57 | 7330
31 | O=C1NC(=S)S/C1=C\c1ccc2c(c1)N(CCc1ccc(C(F)(F)F)cc1)C(=O)CO2 | – | 8.1
32 | O=S(=O)(O)c1ccc(OCCCCCCCCCCOc2ccc(S(=O)(=O)O)cc2)cc1 | 11 | –
33 | CCOc1ccc(Nc2ccc3c(O)cc(S(=O)(=O)O)cc3c2)cc1 | 72 | 992
34 | O=C1NC(=S)S/C1=C\c1ccc(-c2cc([N+](=O)[O-])ccc2Br)o1 | – | 3600
35 | Cc1ccc(CCN2C(=O)COc3ccc(/C=C4\SC(=S)NC4=O)cc32)cc1 | – | 37.3
36 | COc1cccc(CCN2C(=O)COc3ccc(/C=C4\SC(=S)NC4=O)cc32)c1 | – | 11.2
37 | CCOc1nc(OCC)c2[nH]c(C(=O)O)c(Br)c2n1 | 50 | –
38 | O=C(O)C[S+]([O-])c1ccc2c3c(cccc13)C(=O)c1ccccc1-2 (stereo unspecified) | 67 | 1570
39 | O=C(NC(Cc1ccc(OC(=O)OCc2ccccc2)cc1)C(=O)O)OCc1ccccc1 (stereo unspecified) | 79 | 324
40 | N#Cc1ccc(CN2C(=O)COc3ccc(/C=C4\SC(=S)NC4=O)cc32)cc1 | – | 152
41 | O=C1NC(=S)S/C1=C\c1ccc2c(c1)N(CCc1ccc(Cl)c(Cl)c1)C(=O)CO2 | – | 18.4
42 | Cc1cc(F)ccc1Oc1cccc2c(=O)cc(N3CCOCC3)[nH]c12 | – | 18100

Row | Compound | inhibition [1] [%] | IC50 [2] [nM]
43 | O=C1NC(=S)S/C1=C\c1ccc2c(c1)N(CCc1cccc(Cl)c1)C(=O)CO2 | – | 18
44 | O=C(O)c1ccccc1SC(Sc1ccccc1C(=O)O)c1cccc(Cl)c1 | 88 | 187
45 | O=c1c2c(F)cccc2nc(CSc2ncnc3[nH]cnc23)n1-c1ccccc1Cl | – | 13100
46 | O=c1c2ccccc2nc(CSc2ncnc3[nH]cnc23)n1-c1ccccc1Cl | – | 27900
47 | COc1ccccc1-c1ccc(/C=C2\SC(=O)NC2=O)o1 | – | 1000
48 | CCN1C(=O)/C(=C\c2cc([N+](=O)[O-])ccc2OCC(=O)O)SC1=S | 81 | –
49 | O=C(O)Cc1ccc(OCCCCCOc2ccc(CC(=O)O)cc2)cc1 | 7 | –
50 | CCCCOc1ccc(C(CC(=O)O)CC(=O)O)cc1OC | 98 | 134
51 | O=c1cc(N2CCOCC2)[nH]c2c(Oc3ccc(F)cc3)cccc12 | – | 18100
52 | O=C(NC(Cc1ccccc1)C(=O)NC(Cc1ccc(O)cc1)C(=O)O)OCc1ccccc1 (stereo not drawn) (Cbz-Phe-Tyr-OH; configuration not given here) | 34 | –
53 | Cc1ccccc1-n1c(CSc2ncnc3[nH]cnc23)nc2cccc(Cl)c2c1=O | – | 2540
54 | O=C(NC(Cc1ccc(O)cc1)C(=O)O)C(=O)c1c[nH]c2ccc([N+](=O)[O-])cc12 (stereo unspecified) | 34 | –
55 | COc1ccc(CCN2C(=O)COc3ccc(/C=C4\SC(=S)NC4=O)cc32)cc1 | – | 27.7
56 | COc1ccc(C(CC(=O)O)c2cc(OC)c(OC)c(OC)c2)cc1OC (stereo unspecified) | 58 | 6070
57 | COc1cc(CCN2C(=O)COc3ccc(/C=C4\SC(=S)NC4=O)cc32)cc(OC)c1 | – | 11.8
58 | O=c1c2c(Cl)cccc2nc(CSc2ncnc3[nH]cnc23)n1-c1ccccc1-c1ccccc1 | – | 7620
59 | O=C(CCCCn1cnc2c(SCc3ccccc3)ncnc21)Nc1ccc(C(=O)O)c(O)c1 | 37 | –
60 | COc1ccccc1/N=N/c1c(O)ccc2cc(S(=O)(=O)O)ccc12 | 19 | –
61 | O=C1NC(=S)S/C1=C\c1ccc2c(c1)N(Cc1ccccc1)C(=O)CO2 | – | 97
62 | O=c1c2ccc(F)cc2nc(CSc2ncnc3[nH]cnc23)n1-c1ccccc1Cl | – | 145000
63 | O=c1c2ccccc2nc(CSc2ncnc3[nH]cnc23)n1N1CCOCC1 | – | 138000

Row | Compound | inhibition [1] [%] | IC50 [2] [nM]
64 | CCCC(NC(=O)OCc1ccccc1)C(=O)NC(Cc1ccc(O)cc1)C(=O)O (stereo unspecified) (Cbz-[Nva]-Tyr-OH; configuration not given here) | 10 | –
65 | O=C(O)Cc1ccc(OCCCOc2ccc(CC(=O)O)cc2)cc1 | 24 | –
66 | COc1cc(C[C@@H](CC(=O)c2ccc3c(c2)OCO3)C(=O)O)cc(OC)c1OC | 83 | 575
67 | O=c1cc(N2CCOCC2)[nH]c2c(Cc3ccccc3)cccc12 | – | 10900
68 | COc1ccccc1/N=N/c1c(O)c(S(=O)(=O)O)cc2cc(S(=O)(=O)O)ccc12 | 76 | –
69 | O=c1cc(N2CCOCC2)[nH]c2c(OCc3ccccc3)cccc12 | – | 10900
70 | COc1ccccc1CNc1cc(C)cc2c(=O)cc(N3CCOCC3)[nH]c12 | – | 10700
71 | COc1ccc(C(CC(=O)c2ccc3c(c2)OCO3)C(=O)O)cc1OC (stereo unspecified) | 94 | 234
72 | Cc1ccc(CN2C(=O)COc3ccc(/C=C4\SC(=S)NC4=O)cc32)cc1 | – | 124
73 | O=C1NC(=S)S/C1=C\c1ccc2c(c1)N(CCc1ccc(F)c(F)c1)C(=O)CO2 | – | 20.4
74 | O=S(=O)(O)c1ccc2c(/N=N/c3ccccc3Cl)c(O)ccc2c1 | 76 | –
75 | Cc1ccc(CN2C(=O)COc3ccc(/C=C4\SC(=S)NC4=O)cc32)cc1C | – | 11
76 | O=C(O)C(Nc1ccc(Oc2ccc(NC(C(=O)O)c3ccccc3)cc2)cc1)c1ccccc1 (stereo unspecified) | 57 | –
77 | O=C1NC(=S)S/C1=C\c1ccc2c(c1)N(Cc1ccc(C(F)(F)F)cc1)C(=O)CO2 | – | 116
78 | CSCCC(NCc1c(O)ccc2c(-c3ccccc3)cc(=O)oc12)C(=O)O (stereo unspecified) | 27 | –
79 | O=S(=O)(O)c1ccc(OCCCCCCCCOc2ccc(S(=O)(=O)O)cc2)cc1 | 83 | –
80 | CCCCn1c(CSc2ncnc3[nH]cnc23)nc2ccccc2c1=O | – | 218000
81 | COC[C@H]1OC(=O)c2coc3c2[C@@]1(C)C1=C(C3=O)[C@@H]2CCC(=O)[C@@]2(C)C[C@H]1OC(C)=O | 100 | –
82 | COc1cc(C(CC(=O)O)CC(=O)O)ccc1OCc1ccccc1 | 57 | 5880
